ChEMBL document CHEMBL5241083, “Lysophosphatidic acid (LPA) receptor modulators: Structural features and recent development” (Eur J Med Chem, 2021)
One block for each molecule: values may come before it.

What was measured:
[1] = target: T1, Lysophosphatidic acid receptor 2 (Homo sapiens, UniProt Q9HBW0); assay: Antagonist activity at LPA2 receptor (unknown origin)
[2] = target: T2, Lysophosphatidic acid receptor 5 (Homo sapiens, UniProt Q9H1C0); assay: Antagonist activity at human LPA5 receptor assessed as inhibition of […] cAMP accumulation incubated for 20 mins
T2 sequence (Q9H1C0 whole entry): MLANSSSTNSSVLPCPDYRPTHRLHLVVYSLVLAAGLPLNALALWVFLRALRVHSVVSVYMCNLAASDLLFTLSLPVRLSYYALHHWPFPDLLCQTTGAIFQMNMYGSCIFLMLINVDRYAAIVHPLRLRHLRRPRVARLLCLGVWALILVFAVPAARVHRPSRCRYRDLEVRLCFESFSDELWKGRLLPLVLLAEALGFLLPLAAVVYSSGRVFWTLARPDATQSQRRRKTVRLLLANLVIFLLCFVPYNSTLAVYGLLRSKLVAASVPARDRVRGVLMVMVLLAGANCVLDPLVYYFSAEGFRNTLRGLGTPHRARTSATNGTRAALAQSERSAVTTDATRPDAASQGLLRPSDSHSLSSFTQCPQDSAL

[3] = target: T1, Lysophosphatidic acid receptor 2; assay: Inhibition of LPA2 receptor (unknown origin)
[4] = target: T1, Lysophosphatidic acid receptor 2; assay: Antagonist activity at human LPA2 receptor assessed as inhibition of LPA-induced calcium release
[5] = target: T3, Lysophosphatidic acid receptor 1 (Homo sapiens, UniProt Q92633); assay: Antagonist activity at human LPA1 receptor
T3 sequence (Q92633 whole entry): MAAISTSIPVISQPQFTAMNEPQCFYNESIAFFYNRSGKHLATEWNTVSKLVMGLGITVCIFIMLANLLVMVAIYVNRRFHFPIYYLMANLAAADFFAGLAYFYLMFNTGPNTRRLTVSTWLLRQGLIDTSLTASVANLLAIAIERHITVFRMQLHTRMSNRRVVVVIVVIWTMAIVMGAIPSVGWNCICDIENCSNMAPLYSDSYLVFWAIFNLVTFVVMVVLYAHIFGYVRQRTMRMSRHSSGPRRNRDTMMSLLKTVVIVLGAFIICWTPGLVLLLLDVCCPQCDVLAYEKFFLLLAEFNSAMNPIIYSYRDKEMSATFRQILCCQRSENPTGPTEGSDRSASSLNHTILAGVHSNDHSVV

[6] = target: T2, Lysophosphatidic acid receptor 5; assay: Antagonist activity at human LPA5 receptor by FLIPR analysis
[7] = target: T3, Lysophosphatidic acid receptor 1; assay: Antagonist activity at human LPA1 receptor expressed in CHO cells; format: cell-based
[8] = target: T4, Lysophosphatidic acid receptor 3 (Homo sapiens, UniProt Q9UBY5); assay: Antagonist activity at human LPA3 receptor; format: cell-based, CHO
T4 sequence (Q9UBY5 whole entry): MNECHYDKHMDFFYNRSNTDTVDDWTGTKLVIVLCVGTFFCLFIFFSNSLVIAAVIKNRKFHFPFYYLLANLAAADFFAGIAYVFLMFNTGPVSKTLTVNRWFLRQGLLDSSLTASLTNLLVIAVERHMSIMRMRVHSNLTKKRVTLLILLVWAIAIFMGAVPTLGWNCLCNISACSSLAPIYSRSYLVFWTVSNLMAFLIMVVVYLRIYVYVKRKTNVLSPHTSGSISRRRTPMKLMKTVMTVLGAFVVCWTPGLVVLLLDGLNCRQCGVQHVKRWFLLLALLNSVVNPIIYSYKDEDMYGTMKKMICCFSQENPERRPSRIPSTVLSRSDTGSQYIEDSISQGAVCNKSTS

HEK-293T = assay: Antiproliferative activity against human HEK293T cells assessed as inhibition of cell growth; format: functional, cell-based
[9] = target: T3, Lysophosphatidic acid receptor 1; assay: Antagonist activity at LPA1 receptor (unknown origin) assessed as inhibition constant
[10] = target: T2, Lysophosphatidic acid receptor 5; assay: Antagonist activity at human LPA5 receptor expressed in CHO cells assessed as inhibition of LPA stimulated calcium release incubated for 20 mins followed by […] and measured for 90 seconds; format: cell-based

T1 sequence (Q9HBW0 whole entry): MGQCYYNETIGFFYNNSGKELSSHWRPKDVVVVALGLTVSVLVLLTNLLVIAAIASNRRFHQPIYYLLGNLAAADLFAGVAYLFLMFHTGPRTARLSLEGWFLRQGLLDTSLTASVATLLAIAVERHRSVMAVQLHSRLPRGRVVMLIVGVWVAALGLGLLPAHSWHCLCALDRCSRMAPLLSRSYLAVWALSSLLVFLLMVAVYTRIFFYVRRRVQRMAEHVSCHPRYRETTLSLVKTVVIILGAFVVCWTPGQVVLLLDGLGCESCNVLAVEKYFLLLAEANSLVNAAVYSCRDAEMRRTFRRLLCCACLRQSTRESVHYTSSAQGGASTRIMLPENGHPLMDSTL

SMILES: CCN1CCCc2ccc(-n3cc(C(=O)N4CCCCC4)c4cc(OC)c(OC)cc4c3=O)cc21
IC50 ([2]; filed as antagonist): 0.038 µM

SMILES: Cc1cccc(CN2CCCCC2c2cc3ccccc3[nH]2)c1 (stereo not given)
IC50 [1]: < 0.5 µM

SMILES: COc1ccc(C(=O)NC2(C(=O)O)CC3CCC(C3)C2)cc1OCCc1cccc(C)c1 (stereo not given)
IC50 [5]: 0.1 µM

SMILES: COc1ccc(C(=O)NC2(C(=O)O)CCC(C)C2)cc1OCCc1cccc(C)c1 (stereo not given)
IC50 [5]: 0.1 µM

SMILES: CCCCCCCC/C=C/CCCCCCCC(=O)N[C@H](COP(=O)(O)O)Cc1ccc(OCc2ccccc2)cc1
IC50 (HEK-293T): 0.13 µM

SMILES: CCC1CC1(NC(=O)c1ccc(OC)c(OCCc2cccc(C)c2)c1)C(=O)O (stereo not given)
IC50 [5]: 0.1 µM

SMILES: O=C(Nc1nc2cc(Cl)ccc2[nH]1)C1CC1c1ccccc1 (stereo not given)
IC50 [3]: 0.01 µM

SMILES: Cc1noc(-c2ccc(-c3ccc(CC(=O)O)c4c3CCC4)cc2)c1NC(=O)OC(C)c1ccccc1Cl (stereo not given)
EC50 [7]: < 0.05 µM | EC50 [8]: < 0.05 µM

SMILES: COc1cc(C(=O)N(CCCc2ccccc2)Cc2ccc(Oc3ccccc3C(=O)O)cc2)cc(OC)c1OC
IC50 [5]: 0.11 µM

SMILES: COc1cc2c(C(=O)N3CCCCC3)cn(-c3noc4ccc(C)cc34)c(=O)c2cc1OC
IC50 [2]: 0.038 µM

SMILES: O=C(Nc1nc2ccccc2[nH]1)C1CC1c1ccccc1 (stereo not given)
IC50 [3]: < 0.01 µM

SMILES: CC1=C(NC(=O)OC(C)c2ccccc2Cl)C(c2ccc(CSCCC(=O)O)cc2)ON1 (stereo not given)
Ki [9]: 6.42 µM

SMILES: Cc1c(COC(C)(C)C(=O)NCc2ccc(C(=O)O)cc2)nn(-c2ccc(Cl)cc2Cl)c1-c1ccc(Cl)cc1
IC50 [10]: 2.9 µM | IC50 [6]: 1.3 µM

SMILES: COc1ccc(C(=O)NC2(C(=O)O)CCCCCC2)cc1OCCc1cccc(Cl)c1
IC50 [5]: 0.1 µM

SMILES: O=C(Nc1nc2ccccc2[nH]1)C1CC1c1ccccc1Cl (stereo not given)
IC50 [3]: 0.01 µM

Further lines, results first:

IC50 [1]: < 0.5 µM
SMILES: Cc1cccc(CN2C(C)CCCC2c2cc3cc(F)ccc3[nH]2)c1 (stereo not given)

IC50 [3]: 0.01 µM
SMILES: O=C(Nc1nc2cc(C(F)(F)F)ccc2[nH]1)C1CC1c1ccccc1 (stereo not given)

IC50 [4]: < 1 µM
SMILES: O=C1CC(O)(C(F)(F)F)c2c(-c3cccc(Cl)c3)n[nH]c2N1 (stereo not given)

IC50 [5]: 0.1 µM
SMILES: COc1ccc(C(=O)NC2(C(=O)O)CCCCCC2)cc1OCCc1cc(Cl)ccc1F

IC50 [6]: 0.03 µM
SMILES: Cc1c(COC(C)(C)C(=O)NCc2ccc(C(=O)O)cc2)nn(-c2ccc(Cl)cc2Cl)c1-c1ccc(C(F)(F)F)cc1

IC50 [4]: < 1 µM
SMILES: COc1ccc(-c2n[nH]c3c2C(O)(C(F)(F)F)CC(=O)N3)cc1 (stereo not given)

EC50 [7]: < 0.05 µM | EC50 [8]: < 0.05 µM
SMILES: CC(OC(=O)Nc1c(-c2ccc(-c3ccc(C4(C(=O)O)CC4)cc3)cc2)oc2cnccc12)c1ccccc1 (stereo not given)

IC50 [4]: < 1 µM
SMILES: O=C1CC(O)(C(F)(F)F)c2c(-c3ccncc3)n[nH]c2N1 (stereo not given)

IC50 [6]: 1.3 µM
SMILES: Cc1c(COC(C)(C)C(=O)NCc2ccc(C(=O)O)cc2)nn(-c2ccccc2Cl)c1-c1ccc(C(F)(F)F)cc1

IC50 [4]: < 1 µM
SMILES: O=C1CC(O)(C(F)(F)F)c2c(-c3cccc(C(F)(F)F)c3)n[nH]c2N1 (stereo not given)

IC50 [4]: < 1 µM
SMILES: O=C1CC(O)(C(F)(F)F)c2c(-c3ccccc3)n[nH]c2N1 (stereo not given)

IC50 [4]: < 1 µM
SMILES: COc1cccc(-c2n[nH]c3c2C(O)(C(F)(F)F)CC(=O)N3)c1 (stereo not given)

IC50 [3]: 0.01 µM
SMILES: Cc1cccc(C2CC2C(=O)Nc2nc3ccccc3[nH]2)c1 (stereo not given)

IC50 [4]: < 1 µM
SMILES: O=C1CC(O)(C(F)(F)F)c2c(-c3cccc(Br)c3)n[nH]c2N1 (stereo not given)

IC50 [4]: < 1 µM
SMILES: O=C1CC(O)(C(F)(F)F)c2c(-c3cccs3)n[nH]c2N1 (stereo not given)

EC50 [7]: < 0.05 µM | EC50 [8]: < 0.05 µM
SMILES: CC(OC(=O)Nc1c(-c2ccc(-c3ccc(C4(C(=O)O)CC4)cc3)cc2)oc2cnccc12)c1ccccc1Cl (stereo not given)

IC50 [5]: 0.1 µM
SMILES: CSc1ccc(C(=O)NC2(C(=O)O)Cc3ccccc3C2)cc1OCCc1cccc(C)c1

IC50 [4]: < 1 µM
SMILES: O=C1CC(O)(C(F)(F)F)c2c(-c3cccc(F)c3)n[nH]c2N1 (stereo not given)

IC50 [4]: < 1 µM
SMILES: Cc1ccc(-c2n[nH]c3c2C(O)(C(F)(F)F)CC(=O)N3)cc1 (stereo not given)

IC50 [1]: < 0.5 µM
SMILES: Fc1ccc(CN2CCCCC2c2cc3ccccc3[nH]2)cc1 (stereo not given)

IC50 [4]: < 1 µM
SMILES: O=C1CC(O)(C(F)(F)F)c2c(-c3ccc(F)cc3)n[nH]c2N1 (stereo not given)
